What was measured:
human Tcf7 promoter = conditions: HEK293FT with or without EGFP-C1-AR, 24 h, 500 ng/mL testosterone or 50 nM DHT
Method: Renilla and Red Firefly luciferase activity, the latter of which was regulated by a 1 kb long WT or mutant Tcf7 promoter sequence lacking putative AREs (FIG. 13A), were simultaneously measured in control or EGFP-C1-AR overexpressing HEK293FT post 24 h stimulation with 500 ng/mL testosterone (T) or 50 nM DHT.
Red Firefly luciferase activity, as regulated by a 1 kb long human WT or mutant Tcf7 promoter sequence lacking putative AREs, was measured in EGFP-C1-AR overexpressing HEK293FT cells post 24 h stimulation with 500 ng/mL testosterone or vehicle control.
WT or mutated human Tcf7 promoter sequence of one kb upstream from its transcriptional start site was cloned into the pMCS-Red Firefly Luciferase vector (Thermo Fisher). Mutants lacked individual (“Mut 1-4”) or all putative AR binding sites. Briefly, 40,000 HEK293FT cells were grown on a 96 well plate at 80% confluence. Cells were transfected with 200 ng of pEGFP-C1-human AR (a gift from Michael Mancini, Addgene plasmid #28235) and indicated Tcf7 luciferase reporter plasmids using Lipofectamine 2000 (Thermo Fisher) on Day 0 in triplicates. Renilla luciferase gene expression was used to ensure transfection efficiency (Thermo Fisher). […] Cells were then harvested and luciferase activity was analyzed by using Dual-Luciferase Reporter Assay System (Promega).

[1] = test system: AR-overexpressing Jurkat cells; conditions: 100 nM, re-stimulated Days 0, 3, 6, over 9 days
Method: Data are mean±SEM. Statistical significance was determined by Student's t test. **p≤0.01, ****p≤0.0001.
Empty vector and androgen receptor-expressing Jurkat cells were seeded into six well plates (Gibco) at 2×10^5 cells per well and treated with 100 nM testosterone (Sigma) or DHT (Millipore), alongside methanol vehicle control (Thermo Fisher). Every three days, cells were counted using the BioRad TC20 automated cell counter, passaged, and re-stimulated with the same androgen concentrations over a time course of 3, 6, and 9 days.

[2] = test system: MB49 mouse urothelial carcinoma cells; assay: MB49 tumor growth in WT mice after daily oral enzalutamide; format: in vivo; conditions: male WT mice, enzalutamide 25 mg/kg daily oral gavage from Day 5, vs vehicle
Excerpt: FIGS. 5A, 5B, 5C, 5D, 5E, 5F, 5G, 5H, 5I, and 5J show T cell intrinsic AR signaling contributes to male bias in tumor growth and accumulation of CD8^+ progenitor exhausted T cells. MB49 growth and circulating free testosterone levels in (5A) Four Core Genotype or (5B) WT mice three weeks post sham or surgical castration (cast). […] LNCaP lysates were used as the positive AR control. Rep, replicate. […] For tumor growths, mean area (mm^2)±SEM are reported, with statistical significance determined using the repeated measures two-way ANOVA. n=6-11 mice per group.
MB49 (a gift from C. Voelkel-Johnson from the Medical University of South Carolina) and BKL171 mouse urothelial carcinoma cells were cultured in Dulbecco's modified Eagle's medium with 10% heat-inactivated fetal bovine serum and 1% penicillin/streptomycin. 5×10^5 tumor cells were resuspended in 100 μL ice cold PBS for subcutaneous injection into the right flank of a mouse. For antibody-mediated T cell depletion experiments, mice were injected intraperitoneally with 200 μg of anti-mouse CD4 (Clone GK1.5, BioXCell) and/or CD8 neutralizing antibodies (Clone 53-6.7, BioXCell), followed by 100 μg thereafter on the indicated days. […] Tumor surface area (width×length mm^2) was measured using an electronic caliper starting on Day 4 post implantation.

[3] = test system: CD8+ tumor-infiltrating lymphocytes (TILs) from female patients with bladder cancer; assay: AR blockade of in vitro expanded CD8+ bladder cancer TILs, flow cytometry; format: cell-based, human; conditions: enzalutamide (50 uM in the presence of 10 nM DHT; varying doses), ex vivo expanded TILs
Excerpt: FIGS. 19A, 19B, 19C, 19D and 19E show androgen receptor blockade of in vitro expanded CD8+ bladder cancer TILs promotes effector differentiation and function. […] Statistical significance in FIGS. 19A-C determined by repeated measures ANOVA. P values were corrected for multiple hypothesis testing using the Dunnett method. Statistical significance in FIG. 19E determined by Student's paired t test. *P≤0.05.
In FIG. 19, we investigated the impact of androgen receptor (AR) blockade on in vitro expanded CD8^+ tumor-infiltrating lymphocytes (TILs) from female patients with bladder cancer, focusing on effector differentiation and function. Panel A (FIG. 19A) illustrates the effect of dihydrotestosterone (DHT) treatment on the CD8+GZMB^high population within ex vivo expanded TILs. […] Panel D (FIG. 19D) assesses IFNγ production in CD8+ TILs after PMA/ionomycin/golgi block stimulation with or without enzalutamide. Lastly, Panel E presents the median fluorescence intensity (MFI) of IFN-gamma within the CD8+GZMB^high population. Statistical significance in Panels A-C was determined by repeated measures ANOVA, with P values corrected for multiple hypothesis testing using the Dunnett method. In Panel E (FIG. 19E), statistical significance was determined by Student's paired t test (*P≤0.05).

Tcf7 = assay: qPCR of naive CD8+ T cells stimulated with testosterone, type I IFN or both; format: cell-based, mouse
Method: See methods for details. […] Blue, Male; Pink, Female.
Mouse spleens and tumors were mechanically disrupted, with the latter additionally subjected to digestion with 1 mg/mL Collagenase D (Roche) for 30 min at 37° C. while shaken at 125 rpm. Excess volume of ice-cold PBS with 2% bovine serum albumin was used to inactivate the enzymatic activity. Red Blood Cell Lysis Buffer (BioLegend) was utilized on tissues before they were passed through 70 μm filters to prepare single cell suspensions. For cytokine production experiments, cells were re-stimulated by 50 ng/mL PMA (Sigma), 1 μg/mL Ionomycin (Sigma) and 1× Brefeldin A (BioLegend) in a 48-well plate for 2 hours at 37° C. For in vitro cultures, purified CD8^+ T cells were left untreated or stimulated with 50 ng/mL testosterone (Sigma) and/or 50 U/mL mouse IFN alpha A (PBL Assay Science). Cells were stained at 4° C. with eFluor506 fixable viability dye for 10 minutes (Invitrogen), followed by extracellular surface markers and FcR block concurrently for 30 minutes. […]
RNA was extracted from FACS/MACS-isolated CD8^+ T cells and reverse-transcribed using RNeasy Micro Kit (Qiagen) and SuperScript™ IV VILO™ Master Mix with ezDNase™ Enzyme (ThermoFisher Scientific), respectively. Quantitative PCR was performed with the following primers: […]

| SMILES | Tcf7 promoter activity (Red Firefly luciferase) (human Tcf7 promoter) | proliferation [1] | MB49 tumor growth [2] | effector differentiation and function of CD8+ TILs (GZMB high frequency, PD-1 high TOX high frequency, IFNγ) [3] | Ar expression (qPCR) (Tcf7; female CD8+ T cells, testosterone) | Tcf7 expression (qPCR) (Tcf7; male CD8+ T cells, acute testosterone exposure, 6 hours) |
| --- | --- | --- | --- | --- | --- | --- |
| C[C@]12CCC(=O)C[C@@H]1CC[C@@H]1[C@@H]2CC[C@]2(C)[C@@H](O)CC[C@@H]12 [DHT, dihydrotestosterone] | stimulated Tcf7 promoter activity in an AR dependent manner | decreased proliferation | – | – | – | – |
| CNC(=O)c1ccc(N2C(=S)N(c3ccc(C#N)c(C(F)(F)F)c3)C(=O)C2(C)C)cc1F [enzalutamide] | – | – | partial protection against tumor growth | promoting effector differentiation and function | – | – |
| C[C@]12CC[C@H]3[C@@H](CCC4=CC(=O)CC[C@@]43C)[C@@H]1CC[C@@H]2O [testosterone] | stimulated Tcf7 promoter activity in an AR dependent manner | decreased proliferation | – | – | induction of Ar expression | significantly increased |

Reference: patent US20240382459A1, “MECHANISMS OF ANDROGEN RECEPTOR-CENTERED TRANSCRIPTIONAL NETWORKS IN REGULATING CD8+ T CELL EXHAUSTION AND THERAPEUTIC APPLICATIONS IN CANCER” (Ohio State Innovation Foundation, priority 2023, published 2024)
